Data as given in US10287295B2, “TGF-β inhibitors” (Rigel Pharmaceuticals, Inc., priority 2015, dated 2019).

Assays:
[1] = test system: GDF8 signaling (GDF pSMAD, MPC11); test: AlphaScreen SureFire SMAD3 (p-Ser423/425) assay, inhibition of GDF8 signaling; assay type: cell-based; settings: Mus musculus, MPC-11, inhibition of GDF8 signaling, p-SMAD3 readout
[2] = test system: TGF-β signaling (TGF-β pSMAD, MPC-11); test: AlphaScreen SureFire SMAD3 (p-Ser423/425) assay, inhibition of TGF-β signaling; assay type: cell-based; settings: Mus musculus, MPC-11, inhibition of TGF-β signaling, p-SMAD3 readout

Structure (SMILES)	IC50 [1]	IC50 [2]
Clc1ccc(-c2nc[nH]c2-c2ccc3[nH]ncc3c2)cc1 [Compound 6, 5-(4-(4-Chlorophenyl)-1H-imidazol-5-yl)-1H-indazole]	160 nM	620 nM
Cn1cnc(-c2ccc(F)c(F)c2)c1-c1ccc2[nH]ncc2c1 [Compound 64, 5-(4-(3,4-Difluorophenyl)-1-methyl-1H-imidazol-5-yl)-1H-indazole]	90 nM	270 nM
Fc1cccc(-c2nc[nH]c2-c2ccc3ncsc3c2)c1 [Compound 30, 6-(4-(3-Fluorophenyl)-1H-imidazol-5-yl)benzo[d]thiazole]	270 nM	320 nM
Cc1cccc(-c2nc[nH]c2-c2ccc3[nH]ncc3c2)c1 [Compound 15, 5-(4-(m-Tolyl)-1H-imidazol-5-yl)-1H-indazole]	10 nM	60 nM
Cn1cnc(-c2cccc(Cl)c2)c1-c1ccc2ncsc2c1 [Compound 63, 6-(4-(3-Chlorophenyl)-1-methyl-1H-imidazol-5-yl)benzo[d]thiazole]	60 nM	230 nM
Cc1cccc(-c2nc[nH]c2-c2ccc3nccn3c2)c1 [Compound 19, 6-(4-(m-Tolyl)-1H-imidazol-5-yl)imidazo[1,2-a]pyridine]	150 nM	730 nM
Cc1cccc(-c2ncn(C)c2-c2ccc3nccn3c2)c1 [Compound 45, 6-(1-Methyl-4-(m-tolyl)-1H-imidazol-5-yl)imidazo[1,2-a]pyridine]	440 nM	1780 nM
Cc1cccc(-c2nc[nH]c2-c2ccc3nccnc3c2)c1 [Compound 20, 6-(4-(m-Tolyl)-1H-imidazol-5-yl)quinoxaline]	180 nM	160 nM
Cn1cnc(-c2ccc(F)cc2)c1-c1ccc2ncsc2c1 [Compound 51, 6-(4-(4-Fluorophenyl)-1-methyl-1H-imidazol-5-yl)benzo[d]thiazole]	780 nM	2710 nM
Cc1cccc(-c2ncn(C)c2-c2ccc3ncccc3c2)c1 [Compound 46, 6-(1-Methyl-4-(m-tolyl)-1H-imidazol-5-yl)quinoline]	260 nM	1680 nM
Clc1cccc(-c2nc[nH]c2-c2ccc3[nH]ncc3c2)c1 [Compound 22, 5-(4-(3-Chlorophenyl)-1H-imidazol-5-yl)-1H-indazole]	20 nM	30 nM
Cc1cccc(-c2nc(C)n(C)c2-c2ccc3ncsc3c2)c1 [Compound 59, 6-(1,2-Dimethyl-4-(m-tolyl)-1H-imidazol-5-yl)benzo[d]thiazole]	690 nM	6750 nM
Fc1ccc(-c2nc[nH]c2-c2ccc3cn[nH]c3c2)cc1F [Compound 32, 6-(4-(3,4-Difluorophenyl)-1H-imidazol-5-yl)-1H-indazole]	50 nM	140 nM
Fc1ccc(-c2nc[nH]c2-c2ccc3nccn3c2)cc1F [Compound 35, 6-(4-(3,4-Difluorophenyl)-1H-imidazol-5-yl)imidazo[1,2-a]pyridine]	300 nM	640 nM
Cc1cccc(-c2ncn(C)c2-c2ccc3ncsc3c2)c1 [Compound 44, 6-(1-Methyl-4-(m-tolyl)-1H-imidazol-5-yl)benzo[d]thiazole]	180 nM	720 nM
Cn1cnc(-c2ccc(F)c(F)c2)c1-c1ccc2ncn(C)c2c1 [Compound 66, 6-(4-(3,4-Difluorophenyl)-1-methyl-1H-imidazol-5-yl)-1-methyl-1H-benzo[d]imidazole]	520 nM	980 nM
Clc1cccc(-c2nc[nH]c2-c2ccc3ncsc3c2)c1 [Compound 25, 6-(4-(3-Chlorophenyl)-1H-imidazol-5-yl)benzo[d]thiazole]	40 nM	60 nM

The next lines start with the values.

IC50 [1]	IC50 [2]	Structure (SMILES)
630 nM	3560 nM	Cc1nc(-c2cc(F)c(F)c(F)c2)c(-c2ccc3[nH]ncc3c2)[nH]1 [Compound 90, 5-(2-Methyl-4-(3,4,5-trifluorophenyl)-1H-imidazol-5-yl)-1H-indazole]
50 nM	120 nM	CCc1nc(-c2cccc(Cl)c2)c(-c2ccc3ncnn3c2)[nH]1 [Compound 125, 6-(4-(3-Chlorophenyl)-2-ethyl-1H-imidazol-5-yl)-[1,2,4]triazolo[1,5-a]pyridine]
95.1 nM	236 nM	Nc1nc(-c2cccc(Cl)c2)c(-c2ccc3nccnc3c2)s1 [Compound 169, 4-(3-chlorophenyl)-5-(quinoxalin-6-yl)thiazol-2-amine]
280 nM	1370 nM	CCc1nc(-c2ccc(F)c(C)c2)c(-c2ccc3nccnc3c2)[nH]1 [Compound 112, 6-(2-Ethyl-4-(4-fluoro-3-methylphenyl)-1H-imidazol-5-yl)quinoxaline]
790 nM	4480 nM	CCc1nc(-c2ccc(F)c(C)c2)c(-c2ccc3ncccc3c2)[nH]1 [Compound 111, 6-(2-Ethyl-4-(4-fluoro-3-methylphenyl)-1H-imidazol-5-yl)quinoline]
750 nM	2300 nM	CCc1nc(-c2cccc(F)c2)c(-c2ccc3ncnn3c2)[nH]1 [Compound 136, 6-(2-Ethyl-4-(3-fluorophenyl)-1H-imidazol-5-yl)-[1,2,4]triazolo[1,5-a]pyridine]
540 nM	1340 nM	CCc1nc(-c2cccc(Cl)c2)c(-c2ccc3[nH]ncc3c2)[nH]1 [Compound 124, 5-(4-(3-Chlorophenyl)-2-ethyl-1H-imidazol-5-yl)-1H-indazole]
1000 nM	5960 nM	CCc1nc(-c2cc(C)cc(F)c2)c(-c2ccc3nccn3c2)[nH]1 [Compound 146, 6-(2-Ethyl-4-(3-fluoro-5-methylphenyl)-1H-imidazol-5-yl)imidazo[1,2-a]pyridine]
109 nM	423 nM	Nc1nc(-c2cccc(C(F)(F)F)c2)c(-c2ccc3nccn3c2)s1 [Compound 171, 5-(imidazo[1,2-a]pyridin-6-yl)-4-(3-(trifluoromethyl)phenyl)thiazol-2-amine]
180 nM	1130 nM	CCc1nc(-c2cccc(C)c2)c(-c2ccc3cn[nH]c3c2)[nH]1 [Compound 114, 6-(2-Ethyl-4-(m-tolyl)-1H-imidazol-5-yl)-1H-indazole]
470 nM	8160 nM	CCc1nc(-c2ccc(F)cc2)c(-c2ccc3cn[nH]c3c2)[nH]1 [Compound 120, 6-(2-Ethyl-4-(4-fluorophenyl)-1H-imidazol-5-yl)-1H-indazole]
330 nM	2180 nM	CCc1nc(-c2cccc(C)c2)c(-c2ccc3nccn3c2)[nH]1 [Compound 117, 6-(2-Ethyl-4-(m-tolyl)-1H-imidazol-5-yl)imidazo[1,2-a]pyridine]
730 nM	3260 nM	CCc1nc(-c2cccc(F)c2)c(-c2ccc3nccn3c2)[nH]1 [Compound 138, 6-(2-Ethyl-4-(3-fluorophenyl)-1H-imidazol-5-yl)imidazo[1,2-a]pyridine]
660 nM	2910 nM	CCc1nc(-c2cc(F)cc(Cl)c2)c(-c2ccc3nccnc3c2)[nH]1 [Compound 141, 6-(4-(3-Chloro-5-fluorophenyl)-2-ethyl-1H-imidazol-5-yl)quinoxaline]
170 nM	1370 nM	Cc1nc(-c2cc(F)c(F)cc2F)c(-c2ccc3ncccc3c2)[nH]1 [Compound 100, 6-(2-Methyl-4-(2,4,5-trifluorophenyl)-1H-imidazol-5-yl)quinoline]
450 nM	3140 nM	CCc1nc(-c2cc(C)cc(F)c2)c(-c2ccc3cn[nH]c3c2)[nH]1 [Compound 143, 6-(2-Ethyl-4-(3-fluoro-5-methylphenyl)-1H-imidazol-5-yl)-1H-indazole]
36 nM	228 nM	Cc1cc(-c2nc(N)sc2-c2ccc3nccnc3c2)ccc1F [Compound 158, 4-(4-fluoro-3-methylphenyl)-5-(quinoxalin-6-yl)thiazol-2-amine]
80 nM	338 nM	Nc1nc(-c2cccc(Cl)c2)c(-c2ccc3[nH]ncc3c2)s1 [Compound 168, 4-(3-chlorophenyl)-5-(1H-indazol-5-yl)thiazol-2-amine]
784 nM	365 nM	CNc1nc(-c2ccc(F)cc2)c(-c2ccc3nccn3c2)s1 [Compound 188, 4-(4-fluorophenyl)-5-(imidazo[1,2-a]pyridin-6-yl)-N-methylthiazol-2-amine]
220 nM	1430 nM	Cc1nc(-c2ccc(F)cc2)c(-c2ccc3[nH]ncc3c2)[nH]1 [Compound 77, 5-(4-(4-Fluorophenyl)-2-methyl-1H-imidazol-5-yl)-1H-indazole]
100 nM	950 nM	Cc1nc(-c2ccc(F)c(C)c2)c(-c2ccc3ncsc3c2)[nH]1 [Compound 73, 6-(4-(4-Fluoro-3-methylphenyl)-2-methyl-1H-imidazol-5-yl)benzo[d]thiazole]
650 nM	2320 nM	CCc1nc(-c2ccc(F)c(F)c2)c(-c2ccc3[nH]ncc3c2)[nH]1 [Compound 130, 5-(4-(3,4-Difluorophenyl)-2-ethyl-1H-imidazol-5-yl)-1H-indazole]
50 nM	190 nM	Cc1nc(-c2cc(F)c(F)cc2F)c(-c2ccc3ncnn3c2)[nH]1 [Compound 98, 6-(2-Methyl-4-(2,4,5-trifluorophenyl)-1H-imidazol-5-yl)-[1,2,4]triazolo[1,5-a]pyridine]
252 nM	1100 nM	Nc1nc(-c2cccc(F)c2)c(-c2ccc3ncsc3c2)s1 [Compound 178, 5-(benzo[d]thiazol-6-yl)-4-(3-fluorophenyl)thiazol-2-amine]
478 nM	1110 nM	COc1cccc(-c2nc(N)sc2-c2ccc3ncsc3c2)c1 [Compound 186, 5-(benzo[d]thiazol-6-yl)-4-(3-methoxyphenyl)thiazol-2-amine]
140 nM	500 nM	Cc1nc(-c2cccc(Cl)c2)c(-c2ccc3[nH]ncc3c2)[nH]1 [Compound 101, 5-(4-(3-Chlorophenyl)-2-methyl-1H-imidazol-5-yl)-1H-indazole]
